Key:
[1] = tested on: diabetic rats; assay: Blood glucose lowering effect by dosage for 4 hours in diabetic rats; format: in vivo, Male Sprague-Dawley (SD) rats; settings: diabetic SD rats, subcutaneous injection (PC, positive control)
[2] = tested on: diabetic mouse; assay: Blood glucose level after administration to diabetic mice; format: in vivo, Balb-c strain male mice; settings: subcutaneous injection, 1 IU/kg
Method: Six-week old Balb-c strain male mice were used. Streptozotocin was dissolved in a 0.1 mM sodium chloride buffer at a concentration of 30 mg/mL, followed by subcutaneously injecting into the […] at a dosage of 65 mg/kg so as to induce diabetes. The male mice showing a blood glucose level of 470±40 mg/dL over two consecutive days were selected and the experiment was performed. The diabetic mice were starved for 12 hours before the experiment was started.
After the capsules showing the most preferable result were selected from Experimental Example 7 and Comparative Experimental Example 5, respectively, each capsule was orally administered to the diabetic mouse established in Preparative Example 4 and a blood glucose level was measured. […]
AAC (area above the blood glucose level-time curve) is to be numerically expressed the area above the blood glucose level-time curve by using a linear trapezoidal rule. […] F is relative bioavailability of a drug, which is calculated by multiplying the AAC value in case of the oral administration of insulin by the amount of insulin subcutaneously injected, dividing the resulting value by the AAC value in case of the subcutaneous injection of insulin, and dividing the resulting value by the amount of insulin orally administered. […]

Substance: Insulin
- blood glucose level [1]: most rapidly decreased
- blood glucose level [2]: rapidly decreased
